Measured values reported in US20060217394A1, “Treatment of anhedonia” (priority 2005, published 2006).

Legend:
[1] = test system: patients receiving SSRI or SNRI treatment for major depressive disorder; assay: Retrospective review of patients receiving SSRI or SNRI treatment for major depressive disorder: late-appearing anhedonic symptoms; type: in vivo; conditions: individual patient
Excerpt: Although in the majority of so afflicted patients the diagnosis will be apparent during this interval, it should be understood that iatrogenic anhedonia may appear earlier or later during any course of treatment with medications that increase serotonin transmission efficiency with or without similar increases in the efficiency and availability of norepinephrine. The rather substantial number of patients suffering from the condition over diverse population samples may be postulated to be due to a genetic predisposition for the condition.
Patients in whom SSRIs produced excellent remission of major depressive disorder for the period shown in the 5th column
The result of decreased dopaminergic efficiency and/or availability may be dysphoric interference with the ability to experience the normal range of positive affect over the range from mild interest to pleasant excitement, and from ordinary contentment to great joy. Such decreased dopaminergic transmission efficiency may be caused by agents that block the serotonin transporter alone, and/or those that block both the serotonin transporter and the norepinephrine transporter, and/or those that increase the synthesis and release of both norepinephrine and serotonin and any mechanism whereby the efficiency of serotonergic transmission is enhanced.

[2] = test system: patients afflicted with anhedonia; assay: Treatment of iatrogenic anhedonia in patients with agents enhancing dopaminergic availability and/or efficiency; type: in vivo; conditions: about 2.5 mg prn, no more than once daily, on as few as two to five days per week
[3] = period for which the SSRI produced excellent remission of major depressive disorder

SMILES	SSRI duration before new symptoms [1, 3]	improvement of anhedonia [2]	SSRI duration before new symptoms ([1]; period of excellent remission, some patients 10 years intermittent (stopped Rx each time anomie experienced))
CN(C)CCCC1(c2ccc(F)cc2)OCc2cc(C#N)ccc21 (stereo not drawn) [citalopram]	6 months		
COC(=O)[C@H](c1ccccc1)[C@H]1CCCCN1 [dexmethylphenidate]		Satisfactory and ongoing improvement	
CNCCC(Oc1ccc(C(F)(F)F)cc1)c1ccccc1 (stereo not drawn) [fluoxetine]	2 years		1 year
Fc1ccc([C@@H]2CCNC[C@H]2COc2ccc3c(c2)OCO3)cc1 [paroxetine]	10 years		
CN[C@H]1CC[C@@H](c2ccc(Cl)c(Cl)c2)c2ccccc21 [sertraline]	2 years		
